Patent US20130345419A1, “AZOLE DERIVATIVE” (TAISHO PHARMACEUTICAL CO., LTD., priority 2011, published 2013)

Test system: proliferating cell nuclear antigen (PCNA)
Assay: Test 6: anagen induction stimulating effect in shaven mouse model, skin PCNA by ELISA
Format: in vivo
Settings: 5% (w/v) in 80% ethanol, 200 μL once daily for 2 days, skin sampled about 4 hours after second administration, C57BL mice
Protocol: (Test 6) Test for Measuring Anagen Induction Stimulating Effect in Shave Mouse Model
The anagen induction stimulating effect of a compound was measured by the following method with the quantity of skin PCNA being used as an index.
C57BL mice (female, ca. 7-wk old) were shaven on the back and a base (80% ethanol) or a solution prepared by dissolving 5% (w/v) of Compound 40, 52, 59, 61, 63, 64 or 66 in this base was administered by applying them to the shaven area in 200-μL portions once daily for 2 days starting 3 days after the shaving (each group consisting of 5 heads.) About 4 hours after the administration on the second day, the skin at the application site was sampled and homogenized in a buffer containing 50 mM Tris-HCl (pH 7.6), 150 mM NaCl, 1% NP-40, and a protease inhibitor. By a centrifugal separation procedure, a PCNA containing protein solution was prepared and the quantity of PCNA in the solution was measured with a PCNA-ELISA kit of Calbiochem, Inc.

SMILES | quantity of skin PCNA versus base administered group | skin PCNA levels relative to base administered group
CC1(C)CC(C)(C)CC(O)(C(F)(F)C(=O)N2CCC[C@H]2c2cc(COc3ccccc3)on2)C1 [Compound 52, (S)-2,2-Difluoro-2-(1-hydroxy-3,3,5,5-tetramethylcyclohexyl)-1-(2-(5-(phenoxymethyl)isoxazol-3-yl)pyrrolidin-1-yl)ethanone] | increases in the quantity of skin PCNA | 
CC1(C)CC(C)(C)CC(O)(C(F)(F)C(=O)N2CCC[C@H]2c2cc(COc3cncnc3)on2)C1 [Compound 59] | increases in the quantity of skin PCNA | 
CC1(C)CC(C)(C)CC(O)(C(F)(F)C(=O)N2CCC[C@H]2c2cc(Cn3ccc(=O)nc3)on2)C1 [Compound 61, (S)-1-((3-(1-(2,2-Difluoro-2-(1-hydroxy-3,3,5,5-tetramethylcyclohexyl)acetyl)pyrrolidin-2-yl)isoxazol-5-yl)methyl)pyrimidin-4(1H)-one] | increases in the quantity of skin PCNA | 
CC1(C)CC(C)(C)CC(O)(C(F)(F)C(=O)N2CCC[C@H]2c2cc(COc3ccncn3)on2)C1 [Compound 63, (S)-2,2-Difluoro-2-(1-hydroxy-3,3,5,5-tetramethylcyclohexyl)-1-(2-(5-((pyrimidin-4-yloxy)methyl)isoxazol-3-yl)pyrrolidin-1-yl)ethanone] | increases in the quantity of skin PCNA | 
CC1(C)CC(C)(C)CC(O)(C(F)(F)C(=O)N2CCC[C@H]2c2cc(COc3cccc(F)c3)on2)C1 [Compound 64, (S)-2,2-Difluoro-1-(2-(5-((3-fluorophenoxy)methyl)isoxazol-3-yl)pyrrolidin-1-yl)-2-(1-hydroxy-3,3,5,5-tetramethylcyclohexyl)ethanone] | increases in the quantity of skin PCNA | 
CC1(C)CC(C)(C)CC(O)(C(F)(F)C(=O)N2CCC[C@H]2c2cc(Cn3ccc(=O)cc3)on2)C1 [Compound 66, (S)-1-((3-(1-(2,2-Difluoro-2-(1-hydroxy-3,3,5,5-tetramethylcyclohexyl)acetyl)pyrrolidin-2-yl)isoxazol-5-yl)methyl)pyridin-4(1H)-one] |  | approximately 1.4 times

Target: T1, human recombinant FKBP12 (Homo sapiens, UniProt P62942)
T1 construct: purchased Sigma F-5398
Assay: Test 1: immunophilin FKBP12 rotamase (peptidylprolyl isomerase) inhibiting activity
Format: biochemical
Settings: 12 nM human recombinant FKBP12, substrate succinyl-Ala-Phe-Pro-Phe-paranitroanilide 48 μM, 4° C.; read-out: PKBP12 rotamase inhibiting activity IC50
Protocol: (Test 1) Test for Measuring Immunophilin FKBP12 Rotamase Activity
The rotamase (peptidylprolyl isomerase) inhibiting activity of each test compound was measured by a known method (Harding et al., Nature 341, 758-760, 1989; Holts et al., J. Am. Chem. Soc. 115, 9925-9938, 1993.) To be more specific, a plastic cuvette was charged with 35 mM HEPES (pH 7.8), 12 nM human recombinant FKBP12 (Sigma, F-5398), 0.4 mg/mL α-chymotrypsin, and a test compound dissolved in DMSO at varying concentrations (DMSO's final concentration was 0.1%.) Subsequently, 24 mM of the substrate peptide, succinyl-Ala-Phe-Pro-Phe-paranitroanilide, as dissolved in trifluoroethanol containing 500 mM of LiCl was added to give a final concentration of 48 μM, whereupon reaction started. The reaction was carried out at 4° C. and the change in absorbance at 390 nm accompanying the liberation of the paranitroaniline product was monitored. A calculated initial rate minus the corresponding value in the absence of the enzyme was used as an index of rotamase activity. The rotamase inhibiting activity of a test compound was expressed in relative values (%) with respect to the control value of rotamase activity in the absence of the compound, and the concentration of the compound at which it was capable of inhibiting rotamase activity by 50% was calculated as an IC50 value from its concentration response curve.

T1 sequence (P62942 whole entry): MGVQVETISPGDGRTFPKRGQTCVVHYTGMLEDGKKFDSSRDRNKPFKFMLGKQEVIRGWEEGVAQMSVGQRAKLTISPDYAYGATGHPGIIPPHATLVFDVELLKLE

SMILES | IC50 [nM]
COc1ccc(OCc2cc([C@@H]3CCCN3C(=O)C(F)(F)C3(O)CC(C)(C)CC(C)(C)C3)no2)cn1 [Compound 41, (S)-2,2-Difluoro-2-(1-hydroxy-3,3,5,5-tetramethylcyclohexyl)-1-(2-(5-(((6-methoxypyridin-3-yl)oxy)methyl)isoxazol-3-yl)pyrrolidin-1-yl)ethanone] | 150
CC1(C)CC(C)(C)CC(O)(C(F)(F)C(=O)N2CCC[C@H]2c2cc(CN)on2)C1 [Compound 42, (S)-1-(2-(5-(Aminomethyl)isoxazol-3-yl)pyrrolidin-1-yl)-2,2-difluoro-2-(1-hydroxy-3,3,5,5-tetramethylcyclohexyl)ethanone] | 447
COc1ccc(OCc2cc([C@@H]3CCCN3S(=O)(=O)CC3CCCCC3)no2)cc1OC [Compound 43, (S)-3-(1-((Cyclohexylmethyl)sulfonyl)pyrrolidin-2-yl)-5-((3,4-dimethoxyphenoxy)methyl)isoxazole] | 149
CC1(C)CC(C)(C)CC(O)(C(F)(F)C(=O)N2CCC[C@H]2c2cc(CNC(=O)c3ccccc3)on2)C1 [Compound 44, (S)—N-((3-(1-(2,2-Difluoro-2-(1-hydroxy-3,3,5,5-tetramethylcyclohexyl)acetyl)pyrrolidin-2-yl)isoxazol-5-yl)methyl)benzamide] | 166
CC1(C)CC(C)(C)CC(O)(C(F)(F)C(=O)N2CCC[C@H]2c2cc(CNS(=O)(=O)c3ccccc3)on2)C1 [Compound 45, (S)—N-((3-(1-(2,2-Difluoro-2-(1-hydroxy-3,3,5,5-tetramethylcyclohexyl)acetyl)pyrrolidin-2-yl)isoxazol-5-yl)methyl)benzenesulfonamide] | 101
CN(C)Cc1cc([C@@H]2CCCN2C(=O)C(F)(F)C2(O)CC(C)(C)CC(C)(C)C2)no1 [Compound 46, (S)-1-(2-(5-((Dimethylamino)methyl)isoxazol-3-yl)pyrrolidin-1-yl)-2,2-difluoro-2-(1-hydroxy-3,3,5,5-tetramethylcyclohexyl)ethanone] | 310
CC1(C)CC(C)(C)CC(O)(C(F)(F)C(=O)N2CCC[C@H]2c2cc(CN3CCOCC3)on2)C1 [Compound 47] | 254
CC1(C)CC(C)(C)CC(O)(C(F)(F)C(=O)N2CCC[C@H]2c2cc(CNC(=O)Cc3ccccc3)on2)C1 [Compound 48] | 94
CC1(C)CC(C)(C)CC(O)(C(F)(F)C(=O)N2CCC[C@H]2c2cc(C(C)(C)O)on2)C1 [Compound 49] | 500 to 1000
COc1ccc(C(=O)NCc2cc([C@@H]3CCCN3C(=O)C(F)(F)C3(O)CC(C)(C)CC(C)(C)C3)no2)cc1OC [Compound 50] | 117
COc1ccc(CC(=O)NCc2cc([C@@H]3CCCN3C(=O)C(F)(F)C3(O)CC(C)(C)CC(C)(C)C3)no2)cc1OC [Compound 51] | 74
CC1(C)CC(C)(C)CC(O)(C(F)(F)C(=O)N2CCC[C@H]2c2cc(COc3ccccc3)on2)C1 [Compound 52, (S)-2,2-Difluoro-2-(1-hydroxy-3,3,5,5-tetramethylcyclohexyl)-1-(2-(5-(phenoxymethyl)isoxazol-3-yl)pyrrolidin-1-yl)ethanone] | 204
CC1(C)CC(C)(C)CC(O)(C(F)(F)C(=O)N2CCC[C@H]2c2cc(COc3ccnnc3)on2)C1 [Compound 53, (S)-2,2-Difluoro-2-(1-hydroxy-3,3,5,5-tetramethylcyclohexyl)-1-(2-(5-((pyridazin-4-yloxy)methyl)isoxazol-3-yl)pyrrolidin-1-yl)ethanone] | 86
CC1(C)CC(C)(C)CC(O)(C(F)(F)C(=O)N2CCC[C@H]2c2cc(COc3ccccn3)on2)C1 [Compound 54, (S)-2,2-Difluoro-2-(1-hydroxy-3,3,5,5-tetramethylcyclohexyl)-1-(2-(5-((pyridin-2-yloxy)methyl)isoxazol-3-yl)pyrrolidin-1-yl)ethanone] | 290
CC1(C)CC(C)(C)CC(O)(C(F)(F)C(=O)N2CCC[C@H]2c2cc(COc3cnccn3)on2)C1 [Compound 55, (S)-2,2-Difluoro-2-(1-hydroxy-3,3,5,5-tetramethylcyclohexyl)-1-(2-(5-((pyrazin-2-yloxy)methyl)isoxazol-3-yl)pyrrolidin-1-yl)ethanone] | 228
CC1(C)CC(C)(C)CC(O)(C(F)(F)C(=O)N2CCC[C@H]2c2cc(COc3cccnn3)on2)C1 [Compound 56, (S)-2,2-Difluoro-2-(1-hydroxy-3,3,5,5-tetramethylcyclohexyl)-1-(2-(5-((pyridazin-3-yloxy)methyl)isoxazol-3-yl)pyrrolidin-1-yl)ethanone] | 328
CC1(C)CC(C)(C)CC(O)(C(F)(F)C(=O)N2CCC[C@H]2c2cc(COc3ccncc3)on2)C1 [Compound 57, (S)-2,2-Difluoro-2-(1-hydroxy-3,3,5,5-tetramethylcyclohexyl)-1-(2-(5-((pyridin-4-yloxy)methyl)isoxazol-3-yl)pyrrolidin-1-yl)ethanone] | 79
CC1(C)CC(C)(C)CC(O)(C(F)(F)C(=O)N2CCC[C@H]2c2cc(COc3ncccn3)on2)C1 [Compound 58, (S)-2,2-Difluoro-2-(1-hydroxy-3,3,5,5-tetramethylcyclohexyl)-1-(2-(5-((pyrimidin-2-yloxy)methyl)isoxazol-3-yl)pyrrolidin-1-yl)ethanone] | 250
CC1(C)CC(C)(C)CC(O)(C(F)(F)C(=O)N2CCC[C@H]2c2cc(COc3cncnc3)on2)C1 [Compound 59] | 124
CC1(C)CC(C)(C)CC(O)(C(F)(F)C(=O)N2CCC[C@H]2c2cc(Cn3ccccc3=O)on2)C1 [Compound 60, (S)-1-((3-(1-(2,2-Difluoro-2-(1-hydroxy-3,3,5,5-tetramethylcyclohexyl)acetyl)pyrrolidin-2-yl)isoxazol-5-yl)methyl)pyridin-2(1H)-one] | 376
CC1(C)CC(C)(C)CC(O)(C(F)(F)C(=O)N2CCC[C@H]2c2cc(Cn3ccc(=O)nc3)on2)C1 [Compound 61, (S)-1-((3-(1-(2,2-Difluoro-2-(1-hydroxy-3,3,5,5-tetramethylcyclohexyl)acetyl)pyrrolidin-2-yl)isoxazol-5-yl)methyl)pyrimidin-4(1H)-one] | 152
CC1(C)CC(C)(C)CC(O)(C(F)(F)C(=O)N2CCC[C@H]2c2cc(Cn3cnccc3=O)on2)C1 [Compound 62, (S)-3-((3-(1-(2,2-Difluoro-2-(1-hydroxy-3,3,5,5-tetramethylcyclohexyl)acetyl)pyrrolidin-2-yl)isoxazol-5-yl)methyl)pyrimidin-4(3H)-one] | 210
CC1(C)CC(C)(C)CC(O)(C(F)(F)C(=O)N2CCC[C@H]2c2cc(COc3ccncn3)on2)C1 [Compound 63, (S)-2,2-Difluoro-2-(1-hydroxy-3,3,5,5-tetramethylcyclohexyl)-1-(2-(5-((pyrimidin-4-yloxy)methyl)isoxazol-3-yl)pyrrolidin-1-yl)ethanone] | 185
CC1(C)CC(C)(C)CC(O)(C(F)(F)C(=O)N2CCC[C@H]2c2cc(COc3cccc(F)c3)on2)C1 [Compound 64, (S)-2,2-Difluoro-1-(2-(5-((3-fluorophenoxy)methyl)isoxazol-3-yl)pyrrolidin-1-yl)-2-(1-hydroxy-3,3,5,5-tetramethylcyclohexyl)ethanone] | 182
Cc1ccc(OCc2cc([C@@H]3CCCN3C(=O)C(F)(F)C3(O)CC(C)(C)CC(C)(C)C3)no2)cc1 [Compound 65] | 241
